In one experiment the target is T1, human alpha 7-wt nAChR (Homo sapiens, UniProt P36544).
T1 construct: expressed in transfected cells
Kind of experiment: Ca2+ flux imaging (FDSS) (Protocol B). It is filed as cell-based. Conditions: for Emax: efficacy of 100 μM choline defined as 100% in the absence of a PAM, read-out: a7-PAM-G_[33]_Eff_Curve_FI % Efficacy; for EC50: potentiation of 100 μM choline, compounds 0.01 μM to 30 μM, read-out: a7-PAM-G_[33]_pEC50 pEC50 (converted). A digest of the protocol:
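Fluo-4AM-loaded cells expressing human α7-wt nAChR, in HBSS with 10 mM HEPES, 5 mM CaCl2, 0.1% BSA, received compound (0.01–30 μM), typically 10 min before 100 μM choline, with calcium flux read in real time. Potentiation is relative to choline alone (100%); EC50 from sigmoidal curves.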
For orientation: A change in cytosolic calcium serves as a functional read-out for many receptors and channels.

The test system of a further experiment is DBA/2 mice. Kind of experiment: Auditory evoked potential test in DBA/2 mice. The experiment is classed as in vivo, mouse. Particulars: s.c.; male DBA/2 mice; TC ratio vs baseline, p<0.05. An excerpt: A number of compounds according to the invention have proven active in the auditory evoked potential test. […] The DBA/2 mouse has proven to be a useful model of schizophrenia-like sensory processing deficits. Human studies of nicotine effects on sensory processing predicted the results in the DBA/2 mouse and studies with the selective alpha 7 agonist GTS-21 in DBA/2 mice, predicted the effects in humans. This model of sensory gating ability therefore has high translational relevance.
The vehicle used was 20% hydroxypropyl-β-cyclodextrin (HP-β-CD) in water, acidified slightly with a few drops of tartaric acid. Both drug solution and vehicle were administered s.c. in a volume of 4 ml/kg. […]
The ratio of the P20-N40 amplitude of response to the second (test) stimulus and the first (conditioning) stimulus provides a measure of sensory inhibition; the ratio of the test to the conditioning amplitude (TC ratio) is 0.5 or less for most rodent strains and normal humans. […] The maximum negativity between 20 and 60 ms after the two stimuli was selected as the N40 wave and measured relative to the preceding positivity, the P20 wave. The amplitude from the P20 to the N40 wave was determined for both the conditioning and the test response. […]
All data were analyzed by multivariate analysis of variance with repeated measures. […]

Structures are written as SMILES.

T1 sequence (P36544 23-502): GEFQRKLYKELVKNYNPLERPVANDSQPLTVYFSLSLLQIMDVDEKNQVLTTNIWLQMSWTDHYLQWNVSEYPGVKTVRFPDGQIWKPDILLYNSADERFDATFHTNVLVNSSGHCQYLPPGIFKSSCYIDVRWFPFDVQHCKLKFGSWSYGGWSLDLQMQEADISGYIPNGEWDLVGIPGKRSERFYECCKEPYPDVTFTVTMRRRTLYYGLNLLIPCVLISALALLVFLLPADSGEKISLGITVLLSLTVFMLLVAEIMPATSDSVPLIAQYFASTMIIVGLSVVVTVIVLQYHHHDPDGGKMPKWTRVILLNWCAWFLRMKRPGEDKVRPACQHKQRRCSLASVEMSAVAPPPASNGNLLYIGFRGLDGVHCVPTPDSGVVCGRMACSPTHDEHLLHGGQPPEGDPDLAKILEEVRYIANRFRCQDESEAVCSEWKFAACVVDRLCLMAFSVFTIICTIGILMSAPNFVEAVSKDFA

Consider `Cc1cc(-c2sc(N3C[C@@H](C)O[C@@H](C)C3)nc2CNC(=O)c2conc2C)cc(C)n1` [Compound 18, N-[[2-[(2R,6S)-2,6-dimethyl-4-morpholinyl]-5-(2,6-dimethyl-4-pyridinyl)-4-thiazolyl]methyl]-3-methyl-4-isoxazolecarboxamide], for which, at human alpha 7-wt nAChR, the Emax was 815% and the EC50 is 0.38 µM. In addition, in the experiment with DBA/2 mice, the lowest active dose was found to be 0.04 mg/kg.
The corresponding values for `Cc1cc(-c2sc(N3C[C@@H](C)O[C@@H](C)C3)nc2CNC(=O)CC2CC2)cc(C)n1` [Compound 1, N-[[2-[(2R,6S)-2,6-dimethyl-4-morpholinyl]-5-(2,6-dimethyl-4-pyridinyl)-4-thiazolyl]methyl]-cyclopropaneacetamide] are 796%, 0.186 µM and 0.63 mg/kg.

Values taken from patent US8637510B2, “Morpholinothiazoles as alpha 7 positive allosteric modulators” (Janssen Pharmaceutica NV, priority 2009, dated 2014).
